Test system: 958667-338-R-J2-PDC tumor spheroids viability
Experiment: Anticancer human tumor 958667-338-R-J2-PDC patient-derived colon adenocarcinoma cell line growth inhibition [PI3K]
Details: spheroids with HUVEC and MSC; for IC50: curve of first compound; for viability, T/C: stronger effect = lower value
Outline: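 Tumor cells were combined with HUVEC and MSCs into spheroids, then dosed with PI3K-inhibitor combinations over half-log ranges capped near clinical Cmax or 10 microM.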
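Also: spheroids exposed to compounds for seven days before readout.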

**Q.** With `Cn1cnc2c(F)c(Nc3ccc(Br)cc3Cl)c(C(=O)NOCCO)cc21` + Cc1nc(NC(=O)N2CCCC2C(N)=O)sc1-c1ccnc(C(C)(C)C(F)(F)F)c1 as the compound, how does the IC50 (second compound 0.0316 µM) read?
**A.** Its IC50 is 413 nM.

**Q.** And the IC50 (second compound 0.1 µM)?
**A.** The IC50 was 328 nM.

**Q.** And the IC50 (second compound 0.316 µM)?
**A.** The IC50 was 108 nM.

**Q.** And the IC50 (second compound 1 µM)?
**A.** Its IC50 is 58.5 nM.

**Q.** And the IC50 (second compound 3.16 µM)?
**A.** Its IC50 is 66 nM.

**Q.** And the IC50 (second compound 10 µM)?
**A.** The IC50 was 14.2 nM.

**Q.** And the viability, T/C (second compound 0.0316 µM, first compound 0.00949 µM)?
**A.** Its viability, T/C is 99.2%.

**Q.** What about the viability, T/C (second compound 0.0316 µM, first compound 0.03 µM) of the same compound?
**A.** Its viability, T/C is 81.9%.

**Q.** And the viability, T/C (second compound 0.0316 µM, first compound 0.0949 µM)?
**A.** The viability, T/C was 73.6%.

**Q.** And the viability, T/C (second compound 0.0316 µM, first compound 0.3 µM)?
**A.** The viability, T/C was 56.9%.

**Q.** And the viability, T/C (second compound 0.0316 µM, first compound 0.949 µM)?
**A.** Its viability, T/C is 35.1%.

**Q.** And the viability, T/C (second compound 0.0316 µM, first compound 3 µM)?
**A.** Its viability, T/C is 15.8%.

**Q.** What about the viability, T/C (second compound 0.1 µM, first compound 0.00949 µM) of the same compound?
**A.** Its viability, T/C is 96.1%.

**Q.** And the viability, T/C (second compound 0.1 µM, first compound 0.03 µM)?
**A.** Its viability, T/C is 95.3%.

**Q.** What about the viability, T/C (second compound 0.1 µM, first compound 0.0949 µM) of the same compound?
**A.** The viability, T/C was 60.3%.

**Q.** And the viability, T/C (second compound 0.1 µM, first compound 0.3 µM)?
**A.** Its viability, T/C is 52.3%.

**Q.** What about the viability, T/C (second compound 0.1 µM, first compound 0.949 µM) of the same compound?
**A.** Its viability, T/C is 36.4%.

**Q.** And the viability, T/C (second compound 0.1 µM, first compound 3 µM)?
**A.** The viability, T/C was 12.7%.

**Q.** And the viability, T/C (second compound 0.316 µM, first compound 0.00949 µM)?
**A.** The viability, T/C was 94.8%.

**Q.** And the viability, T/C (second compound 0.316 µM, first compound 0.03 µM)?
**A.** Its viability, T/C is 69%.

**Q.** What about the viability, T/C (second compound 0.316 µM, first compound 0.0949 µM) of the same compound?
**A.** The viability, T/C was 52.7%.

**Q.** What about the viability, T/C (second compound 0.316 µM, first compound 0.3 µM) of the same compound?
**A.** Its viability, T/C is 35.5%.

**Q.** What about the viability, T/C (second compound 0.316 µM, first compound 0.949 µM) of the same compound?
**A.** The viability, T/C was 21.9%.

**Q.** And the viability, T/C (second compound 0.316 µM, first compound 3 µM)?
**A.** The viability, T/C was 11.9%.

**Q.** What about the viability, T/C (second compound 1 µM, first compound 0.00949 µM) of the same compound?
**A.** Its viability, T/C is 80%.

**Q.** What about the viability, T/C (second compound 1 µM, first compound 0.03 µM) of the same compound?
**A.** The viability, T/C was 63%.

**Q.** What about the viability, T/C (second compound 1 µM, first compound 0.0949 µM) of the same compound?
**A.** The viability, T/C was 40.3%.

**Q.** And the viability, T/C (second compound 1 µM, first compound 0.3 µM)?
**A.** Its viability, T/C is 24%.

**Q.** What about the viability, T/C (second compound 1 µM, first compound 0.949 µM) of the same compound?
**A.** The viability, T/C was 14.7%.

**Q.** What about the viability, T/C (second compound 1 µM, first compound 3 µM) of the same compound?
**A.** The viability, T/C was 7.55%.

**Q.** And the viability, T/C (second compound 3.16 µM, first compound 0.00949 µM)?
**A.** Its viability, T/C is 50.3%.

**Q.** And the viability, T/C (second compound 3.16 µM, first compound 0.03 µM)?
**A.** The viability, T/C was 63.5%.

**Q.** What about the viability, T/C (second compound 3.16 µM, first compound 0.0949 µM) of the same compound?
**A.** The viability, T/C was 46.2%.

**Q.** What about the viability, T/C (second compound 3.16 µM, first compound 0.3 µM) of the same compound?
**A.** The viability, T/C was 16.4%.

**Q.** And the viability, T/C (second compound 3.16 µM, first compound 0.949 µM)?
**A.** Its viability, T/C is 11%.

**Q.** And the viability, T/C (second compound 3.16 µM, first compound 3 µM)?
**A.** The viability, T/C was 3.01%.

**Q.** What about the viability, T/C (second compound 10 µM, first compound 0.00949 µM) of the same compound?
**A.** The viability, T/C was 56.8%.

**Q.** What about the viability, T/C (second compound 10 µM, first compound 0.03 µM) of the same compound?
**A.** The viability, T/C was 37.7%.

**Q.** What about the viability, T/C (second compound 10 µM, first compound 0.0949 µM) of the same compound?
**A.** The viability, T/C was 12.8%.

**Q.** And the viability, T/C (second compound 10 µM, first compound 0.3 µM)?
**A.** Its viability, T/C is 9.46%.

**Q.** And the viability, T/C (second compound 10 µM, first compound 0.949 µM)?
**A.** The viability, T/C was 5.65%.

**Q.** And the viability, T/C (second compound 10 µM, first compound 3 µM)?
**A.** Its viability, T/C is 1.13%.

**Q.** Which IC50 (second compound 0.0316 µM) does the source give for `CC1(C)CCC(Nc2ncc(C(F)(F)F)c(-c3c[nH]c4c(P(C)(C)=O)c(C#N)ccc34)n2)CN1` (centres undefined) + Cc1nc(NC(=O)N2CCCC2C(N)=O)sc1-c1ccnc(C(C)(C)C(F)(F)F)c1 here?
**A.** The IC50 was 6390 nM.

**Q.** What about the IC50 (second compound 0.1 µM) of the same compound?
**A.** Its IC50 is 4530 nM.

**Q.** And the IC50 (second compound 0.316 µM)?
**A.** Its IC50 is 4090 nM.

**Q.** What about the IC50 (second compound 1 µM) of the same compound?
**A.** The IC50 was 3330 nM.

**Q.** And the IC50 (second compound 3.16 µM)?
**A.** The IC50 was 2580 nM.

**Q.** And the IC50 (second compound 10 µM)?
**A.** Its IC50 is 1040 nM.

**Q.** What about the viability, T/C (second compound 0.0316 µM, first compound 0.0316 µM) of the same compound?
**A.** The viability, T/C was 108%.

**Q.** What about the viability, T/C (second compound 0.0316 µM, first compound 0.1 µM) of the same compound?
**A.** The viability, T/C was 136%.

**Q.** What about the viability, T/C (second compound 0.0316 µM, first compound 0.316 µM) of the same compound?
**A.** The viability, T/C was 84%.

**Q.** What about the viability, T/C (second compound 0.0316 µM, first compound 1 µM) of the same compound?
**A.** The viability, T/C was 72.4%.

**Q.** And the viability, T/C (second compound 0.0316 µM, first compound 3.16 µM)?
**A.** The viability, T/C was 71.4%.

**Q.** What about the viability, T/C (second compound 0.0316 µM, first compound 10 µM) of the same compound?
**A.** Its viability, T/C is 39%.

**Q.** And the viability, T/C (second compound 0.1 µM, first compound 0.0316 µM)?
**A.** The viability, T/C was 140%.

**Q.** And the viability, T/C (second compound 0.1 µM, first compound 0.1 µM)?
**A.** Its viability, T/C is 112%.

**Q.** What about the viability, T/C (second compound 0.1 µM, first compound 0.316 µM) of the same compound?
**A.** The viability, T/C was 83.5%.

**Q.** What about the viability, T/C (second compound 0.1 µM, first compound 1 µM) of the same compound?
**A.** The viability, T/C was 72.2%.

**Q.** What about the viability, T/C (second compound 0.1 µM, first compound 3.16 µM) of the same compound?
**A.** The viability, T/C was 55.9%.

**Q.** What about the viability, T/C (second compound 0.1 µM, first compound 10 µM) of the same compound?
**A.** The viability, T/C was 40.3%.

**Q.** And the viability, T/C (second compound 0.316 µM, first compound 0.0316 µM)?
**A.** The viability, T/C was 119%.

**Q.** And the viability, T/C (second compound 0.316 µM, first compound 0.1 µM)?
**A.** The viability, T/C was 79.5%.

**Q.** What about the viability, T/C (second compound 0.316 µM, first compound 0.316 µM) of the same compound?
**A.** Its viability, T/C is 96.2%.

**Q.** And the viability, T/C (second compound 0.316 µM, first compound 1 µM)?
**A.** Its viability, T/C is 59.4%.

**Q.** What about the viability, T/C (second compound 0.316 µM, first compound 3.16 µM) of the same compound?
**A.** Its viability, T/C is 67.1%.

**Q.** And the viability, T/C (second compound 0.316 µM, first compound 10 µM)?
**A.** Its viability, T/C is 30.9%.

**Q.** And the viability, T/C (second compound 1 µM, first compound 0.0316 µM)?
**A.** The viability, T/C was 103%.

**Q.** And the viability, T/C (second compound 1 µM, first compound 0.1 µM)?
**A.** Its viability, T/C is 82%.

**Q.** And the viability, T/C (second compound 1 µM, first compound 0.316 µM)?
**A.** The viability, T/C was 86.5%.

**Q.** And the viability, T/C (second compound 1 µM, first compound 1 µM)?
**A.** The viability, T/C was 67.6%.

**Q.** What about the viability, T/C (second compound 1 µM, first compound 3.16 µM) of the same compound?
**A.** Its viability, T/C is 55.2%.

**Q.** What about the viability, T/C (second compound 1 µM, first compound 10 µM) of the same compound?
**A.** The viability, T/C was 22.8%.

**Q.** What about the viability, T/C (second compound 3.16 µM, first compound 0.0316 µM) of the same compound?
**A.** Its viability, T/C is 80.5%.

**Q.** And the viability, T/C (second compound 3.16 µM, first compound 0.1 µM)?
**A.** Its viability, T/C is 83.9%.

**Q.** And the viability, T/C (second compound 3.16 µM, first compound 0.316 µM)?
**A.** Its viability, T/C is 73.5%.

**Q.** What about the viability, T/C (second compound 3.16 µM, first compound 1 µM) of the same compound?
**A.** Its viability, T/C is 55.3%.

**Q.** What about the viability, T/C (second compound 3.16 µM, first compound 3.16 µM) of the same compound?
**A.** Its viability, T/C is 52.6%.

**Q.** What about the viability, T/C (second compound 3.16 µM, first compound 10 µM) of the same compound?
**A.** The viability, T/C was 25.2%.

**Q.** And the viability, T/C (second compound 10 µM, first compound 0.0316 µM)?
**A.** The viability, T/C was 77.5%.

**Q.** And the viability, T/C (second compound 10 µM, first compound 0.1 µM)?
**A.** The viability, T/C was 63.2%.

**Q.** And the viability, T/C (second compound 10 µM, first compound 0.316 µM)?
**A.** Its viability, T/C is 45.5%.

**Q.** What about the viability, T/C (second compound 10 µM, first compound 1 µM) of the same compound?
**A.** Its viability, T/C is 57.1%.

**Q.** And the viability, T/C (second compound 10 µM, first compound 3.16 µM)?
**A.** The viability, T/C was 44.3%.

**Q.** What about the viability, T/C (second compound 10 µM, first compound 10 µM) of the same compound?
**A.** Its viability, T/C is 14.5%.

From PubChem BioAssay AID1963963 (Molecular Pharmacology Branch, DTP, NCI, 2024)
